What was measured:
[1] = target: T1, Adrenergic receptor alpha-1 (Rattus norvegicus, UniProt P15823+P23944+P43140); assay: Binding affinity at Alpha-1 adrenergic receptor in rat cerebral cortex membranes by [3H]prazosin displacement.; format: cell membranes, Membrane
T1 sequence (P15823 whole entry): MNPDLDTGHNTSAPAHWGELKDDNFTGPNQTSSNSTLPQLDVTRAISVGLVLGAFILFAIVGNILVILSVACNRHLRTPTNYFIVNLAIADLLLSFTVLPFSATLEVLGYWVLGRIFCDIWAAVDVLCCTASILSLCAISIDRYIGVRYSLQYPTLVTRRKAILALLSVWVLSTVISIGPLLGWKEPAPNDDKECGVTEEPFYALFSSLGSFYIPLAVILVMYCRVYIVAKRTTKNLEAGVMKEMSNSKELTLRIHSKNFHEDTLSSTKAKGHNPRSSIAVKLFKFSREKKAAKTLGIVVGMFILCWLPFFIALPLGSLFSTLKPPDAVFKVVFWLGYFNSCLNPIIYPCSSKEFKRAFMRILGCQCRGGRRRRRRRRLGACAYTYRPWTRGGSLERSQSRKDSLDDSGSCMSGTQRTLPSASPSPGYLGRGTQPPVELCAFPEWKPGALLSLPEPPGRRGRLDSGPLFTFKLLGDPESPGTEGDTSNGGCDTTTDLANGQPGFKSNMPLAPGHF
T1 sequence (P23944 whole entry): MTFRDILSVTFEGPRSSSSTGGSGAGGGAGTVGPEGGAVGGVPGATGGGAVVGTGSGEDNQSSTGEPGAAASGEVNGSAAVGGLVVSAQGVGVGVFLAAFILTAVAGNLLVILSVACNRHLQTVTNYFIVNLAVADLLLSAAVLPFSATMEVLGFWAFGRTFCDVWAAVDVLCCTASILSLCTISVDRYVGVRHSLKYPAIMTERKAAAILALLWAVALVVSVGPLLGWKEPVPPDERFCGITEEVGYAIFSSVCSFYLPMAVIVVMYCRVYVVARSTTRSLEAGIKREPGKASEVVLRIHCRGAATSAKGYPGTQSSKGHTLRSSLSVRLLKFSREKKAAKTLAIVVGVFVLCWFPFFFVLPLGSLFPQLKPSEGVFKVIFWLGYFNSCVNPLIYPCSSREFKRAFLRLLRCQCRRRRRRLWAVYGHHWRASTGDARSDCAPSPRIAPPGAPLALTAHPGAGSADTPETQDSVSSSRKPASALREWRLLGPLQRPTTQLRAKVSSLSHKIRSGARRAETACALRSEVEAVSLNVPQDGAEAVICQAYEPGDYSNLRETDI
T1 sequence (P43140 whole entry): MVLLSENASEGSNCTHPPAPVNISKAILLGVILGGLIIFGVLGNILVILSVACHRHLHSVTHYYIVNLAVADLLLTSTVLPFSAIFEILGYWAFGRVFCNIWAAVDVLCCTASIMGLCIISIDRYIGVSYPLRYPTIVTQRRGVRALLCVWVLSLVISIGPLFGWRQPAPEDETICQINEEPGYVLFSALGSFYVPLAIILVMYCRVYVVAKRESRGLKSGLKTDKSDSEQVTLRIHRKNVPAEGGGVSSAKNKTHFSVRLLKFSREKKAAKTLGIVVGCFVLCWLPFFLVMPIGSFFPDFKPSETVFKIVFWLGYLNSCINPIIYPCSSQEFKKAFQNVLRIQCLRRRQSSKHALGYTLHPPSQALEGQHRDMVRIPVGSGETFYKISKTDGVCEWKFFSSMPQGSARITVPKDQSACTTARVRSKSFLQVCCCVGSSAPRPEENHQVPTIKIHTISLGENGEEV

[2] = target: T2, 5-hydroxytryptamine receptor 1A (Rattus norvegicus, UniProt P19327); assay: Compound was evaluated for its ability to displace [3H]8-OH-DPAT from serotonin 5-hydroxytryptamine 1A receptor in rat cerebral cortex membranes; format: cell membranes, Membrane
T2 sequence (P19327 whole entry): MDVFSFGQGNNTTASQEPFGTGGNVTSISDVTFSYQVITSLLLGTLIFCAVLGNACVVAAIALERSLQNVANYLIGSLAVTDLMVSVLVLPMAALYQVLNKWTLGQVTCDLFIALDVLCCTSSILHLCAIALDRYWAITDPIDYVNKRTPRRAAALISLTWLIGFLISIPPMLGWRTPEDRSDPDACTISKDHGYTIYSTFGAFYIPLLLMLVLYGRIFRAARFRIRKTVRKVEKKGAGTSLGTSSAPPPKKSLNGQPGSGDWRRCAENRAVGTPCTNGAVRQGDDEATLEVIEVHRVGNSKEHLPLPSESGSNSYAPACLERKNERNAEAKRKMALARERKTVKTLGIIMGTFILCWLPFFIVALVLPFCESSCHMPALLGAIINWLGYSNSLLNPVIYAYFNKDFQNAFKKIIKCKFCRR

[3] = target: 5-hydroxytryptamine receptor 2A (Rattus norvegicus, UniProt P14842); assay: Compound was evaluated for binding affinity against 5-hydroxytryptamine 2A receptor using [3H]ketanserin as a radioligand
Sequence of 5-hydroxytryptamine receptor 2A (P14842 whole entry): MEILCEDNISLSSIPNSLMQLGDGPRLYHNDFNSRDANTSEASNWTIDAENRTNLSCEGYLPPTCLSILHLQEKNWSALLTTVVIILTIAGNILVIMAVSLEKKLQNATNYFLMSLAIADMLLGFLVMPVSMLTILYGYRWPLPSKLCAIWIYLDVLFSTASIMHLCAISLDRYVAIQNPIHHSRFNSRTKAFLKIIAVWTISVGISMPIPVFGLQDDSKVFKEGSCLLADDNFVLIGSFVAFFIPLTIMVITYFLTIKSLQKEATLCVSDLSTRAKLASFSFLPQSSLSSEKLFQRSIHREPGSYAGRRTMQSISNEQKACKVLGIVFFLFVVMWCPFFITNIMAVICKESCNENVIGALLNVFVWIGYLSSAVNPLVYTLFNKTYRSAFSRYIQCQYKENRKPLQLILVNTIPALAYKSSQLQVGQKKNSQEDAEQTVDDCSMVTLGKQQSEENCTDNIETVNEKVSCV

SMILES | Ki [1] | IC50 [2] | other results
COc1ccccc1N1CCN(CCN2C(=O)c3ccccc3C2=O)CC1 | 130 nM | – | –
COc1ccccc1N1CCN(CCCN2C(=O)c3ccccc3C2=O)CC1 | 33 nM | – | –
COc1ccccc1N1CCN(CCCCN2C(=O)CC3(CCCC3)CC2=O)CC1 | – | 2 nM | –
COc1ccccc1N1CCN(CN2C(=O)C3CCCCN3C2=O)CC1 (stereo not given) | – | – | Ki [3]: 1000 nM
COc1ccccc1N1CCN(CCCN2C(=O)CC3(CCCC3)CC2=O)CC1 | – | 80 nM | –

Reference: ChEMBL document CHEMBL1153657, “2-[4-(o-methoxyphenyl)piperazin-1-ylmethyl]-1,3-dioxoperhydroimidazo[1,5-a]pyridine as a new selective 5-HT1A receptor ligand” (Bioorg Med Chem Lett, 1996)
